These results are taken from patent publication US6586187B1, “Methods for solid phase combinatorial synthesis of integrin inhibitors” (Wyeth, priority 1999, dated 2003).

One assay relates to osteoclasts. In words: Osteoclast Pitting Assay. Format: cell-based. The conditions noted are these: neonatal rat osteoclasts on bovine cortical bone slices. As for the experimental part: The assay is conduct ed as described in Murrills and Dempster (1990) Bone 11:333-344. Briefly, 4×4×0.2 mm slices of devitalized bovine cortical bone are numbered, placed in the wells of 96-well culture plates and wetted with 100 ul of Medium 199 containing Hanks salts, 10 mM HEPES, pH 7.0 (Medium 199/Hanks). Bone cell suspensions containing osteoclasts are prepared by mincing the long bones of neonatal rats (Sprague-Dawley , 4-6 days old) in Medium 199/Hanks. 100 uL of the suspension are then plated onto each slice and incubated 30 minutes to allow osteoclasts to adhere. The slices are rinsed to remove non-adherent cells and incubated 24 h in Medium 199 containing Earle's salts, 10 mM HEPES and 0.7 g/L NaHCO3, which equilibrates at pH 6.9 in a 5% CO2 atmosphere. At this pH the adherent osteoclasts excavate an adequate number of resorption pits for assay purposes. Slices are fixed in 2.5% glutaraldehyde and osteoclasts counted following tartrate-resistant acid phosphatase staining. […] Resorption pits are quantified by manually counting.
The experiments are conducted according to a block design with osteoclasts from each animal exposed to each treatment. […] Several parameters are recorded on a “per slice” basis: number of pits, number of osteoclasts, number of pits per osteoclast, number of fibroblast-like bone cells. […] IC50s are calculated for active compounds using dose-response curves.

The target of assay [1] is Vitronectin Receptor (αvβ3) (Homo sapiens, UniProt P05106+P06756). Description: Vitronectin Receptor (αvβ3) Binding Assay. The conditions noted are these: at 100 μM; 125I-Echistatin, 512P5 cell membranes.

Positions of bridges follow the written chain, without caps; N, C: chain ends. No end group written: not given here.

Chain of Vitronectin Receptor (αvβ3) (P06756 31-889 limits assumed): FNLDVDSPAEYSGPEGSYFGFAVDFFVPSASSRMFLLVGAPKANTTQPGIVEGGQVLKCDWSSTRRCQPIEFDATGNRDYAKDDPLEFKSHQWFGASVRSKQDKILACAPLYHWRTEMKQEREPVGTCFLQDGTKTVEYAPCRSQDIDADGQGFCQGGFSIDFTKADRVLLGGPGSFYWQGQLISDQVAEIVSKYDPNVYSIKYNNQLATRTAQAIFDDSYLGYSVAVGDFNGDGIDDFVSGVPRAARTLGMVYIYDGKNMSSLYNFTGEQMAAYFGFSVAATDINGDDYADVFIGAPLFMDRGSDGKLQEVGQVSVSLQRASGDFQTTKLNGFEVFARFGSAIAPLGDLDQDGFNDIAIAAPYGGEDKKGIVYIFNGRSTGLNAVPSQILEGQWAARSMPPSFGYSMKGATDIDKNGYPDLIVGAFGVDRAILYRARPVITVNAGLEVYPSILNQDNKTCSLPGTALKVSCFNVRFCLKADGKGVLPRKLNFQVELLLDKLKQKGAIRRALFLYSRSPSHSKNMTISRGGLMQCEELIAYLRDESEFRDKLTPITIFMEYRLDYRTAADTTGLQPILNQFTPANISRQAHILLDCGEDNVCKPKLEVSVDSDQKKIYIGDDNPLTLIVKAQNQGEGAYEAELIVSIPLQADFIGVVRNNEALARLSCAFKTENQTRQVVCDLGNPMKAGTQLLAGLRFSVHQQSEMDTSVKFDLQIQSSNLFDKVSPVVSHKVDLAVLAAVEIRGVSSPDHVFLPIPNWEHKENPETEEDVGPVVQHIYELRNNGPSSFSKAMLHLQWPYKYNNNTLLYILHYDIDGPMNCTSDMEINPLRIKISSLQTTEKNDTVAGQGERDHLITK
Chain of Vitronectin Receptor (αvβ3) (P06756 891-1048 limits assumed): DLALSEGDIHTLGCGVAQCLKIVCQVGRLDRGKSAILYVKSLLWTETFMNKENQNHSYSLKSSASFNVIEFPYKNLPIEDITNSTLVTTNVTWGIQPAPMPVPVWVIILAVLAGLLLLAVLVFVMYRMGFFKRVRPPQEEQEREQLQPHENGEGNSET
Chain of Vitronectin Receptor (αvβ3) (P05106 27-788): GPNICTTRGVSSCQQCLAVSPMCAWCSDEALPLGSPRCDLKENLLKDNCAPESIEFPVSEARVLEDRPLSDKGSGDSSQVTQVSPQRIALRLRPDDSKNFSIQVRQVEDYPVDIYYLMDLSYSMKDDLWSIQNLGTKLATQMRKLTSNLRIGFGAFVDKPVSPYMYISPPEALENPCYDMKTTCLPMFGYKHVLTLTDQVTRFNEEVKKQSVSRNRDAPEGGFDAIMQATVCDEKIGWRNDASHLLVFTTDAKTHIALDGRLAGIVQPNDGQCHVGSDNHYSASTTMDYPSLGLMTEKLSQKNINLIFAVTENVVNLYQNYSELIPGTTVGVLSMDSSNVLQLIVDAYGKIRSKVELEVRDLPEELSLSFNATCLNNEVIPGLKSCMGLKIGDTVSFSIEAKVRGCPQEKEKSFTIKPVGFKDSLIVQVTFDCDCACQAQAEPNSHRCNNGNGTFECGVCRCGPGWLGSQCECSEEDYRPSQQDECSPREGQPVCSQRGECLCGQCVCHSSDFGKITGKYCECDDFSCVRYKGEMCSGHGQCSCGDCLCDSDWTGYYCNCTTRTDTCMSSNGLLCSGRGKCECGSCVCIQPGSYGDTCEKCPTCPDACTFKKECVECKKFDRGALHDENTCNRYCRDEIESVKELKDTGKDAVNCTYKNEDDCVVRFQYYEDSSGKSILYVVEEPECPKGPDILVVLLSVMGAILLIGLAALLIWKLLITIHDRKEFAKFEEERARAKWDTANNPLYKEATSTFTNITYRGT

In the case of “Calcitonin: reference compound of the osteoclast pitting assay; used as anti-resorptive in the clinic (CGNLSTCMLGTYTQDLNKFHTFPQTSIGVGAP-NH2; disulfide 1-7; ends not checked; UniProt P01257 85-116, looked up)”, the osteoclast inhibitory activity entry in the assay with osteoclasts is reported as “significant osteoclast inhibitory activity”.
For the substance “GRGESP: reference peptide, structure given by standard single letter designation for amino acids”, in assay [1], the “ability to inhibit avb3 binding” value was “inactive at 100 μM”.
